Remaining binding data for three molecules are collected here from US12275731B2, “Azaindole inhibitors of wild-type and mutant forms of LRRK2” (DANA-FARBER CANCER INSTITUTE, INC., priority 2018, dated 2025).

What all share (test): KinomeScan profiling
What all share (assay type): binding

The target of test [1] is CAMKK1 (Homo sapiens, UniProt Q8N5S9). Particulars: CAMKK1, 1 μM; read-out: % control. The gist of the method:
(§1)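 1 μM cpd in DMSO; 468-kinase panel; readout RLU. % ctrl = (cpd − pos ctrl)/(neg ctrl − pos ctrl) ×100. Pos ctrl = 0%, DMSO = 100%. Hit cut-off <35%.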

Test [2] has as its target T1, PRKG2 (Homo sapiens, UniProt Q13237).
T1 sequence (Q13237 1-762): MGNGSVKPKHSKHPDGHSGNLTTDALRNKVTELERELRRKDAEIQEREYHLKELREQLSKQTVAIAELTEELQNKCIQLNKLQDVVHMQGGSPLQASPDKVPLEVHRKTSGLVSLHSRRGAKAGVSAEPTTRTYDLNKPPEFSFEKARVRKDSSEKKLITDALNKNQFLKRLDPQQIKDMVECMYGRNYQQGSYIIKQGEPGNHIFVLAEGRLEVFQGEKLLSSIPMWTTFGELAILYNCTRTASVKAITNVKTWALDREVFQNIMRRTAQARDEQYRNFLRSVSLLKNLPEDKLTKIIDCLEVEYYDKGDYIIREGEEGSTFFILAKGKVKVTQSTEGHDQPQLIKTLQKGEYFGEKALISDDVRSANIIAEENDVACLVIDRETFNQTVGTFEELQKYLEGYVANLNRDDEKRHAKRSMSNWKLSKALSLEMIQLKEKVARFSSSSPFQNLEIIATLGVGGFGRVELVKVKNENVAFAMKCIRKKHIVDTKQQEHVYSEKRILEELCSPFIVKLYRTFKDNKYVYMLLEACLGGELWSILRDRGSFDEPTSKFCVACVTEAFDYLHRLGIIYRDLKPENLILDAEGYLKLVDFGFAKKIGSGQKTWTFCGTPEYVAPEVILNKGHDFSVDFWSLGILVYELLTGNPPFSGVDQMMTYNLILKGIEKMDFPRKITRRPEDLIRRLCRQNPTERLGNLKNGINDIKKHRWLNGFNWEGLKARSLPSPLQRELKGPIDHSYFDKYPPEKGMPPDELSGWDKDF
The settings on record: PRKG2, 1 μM; read-out: % control. The essentials:
as §1

In test [3] the target is TRPM6 (Homo sapiens, UniProt Q9BX84). The settings on record: TRPM6, 1 μM; read-out: % control. The essentials:
as §1

For test [4], the target named is CAMKK2 (Homo sapiens, UniProt Q96RR4). Particulars: CAMKK2, 1 μM; read-out: % control. The gist of the method: as §1
In test [5] the target is PCTK1 (Homo sapiens, UniProt Q00536). The settings on record: PCTK1, 1 μM; read-out: % control. The gist of the method: as §1
Sequence of PCTK1 (Q00536 whole entry): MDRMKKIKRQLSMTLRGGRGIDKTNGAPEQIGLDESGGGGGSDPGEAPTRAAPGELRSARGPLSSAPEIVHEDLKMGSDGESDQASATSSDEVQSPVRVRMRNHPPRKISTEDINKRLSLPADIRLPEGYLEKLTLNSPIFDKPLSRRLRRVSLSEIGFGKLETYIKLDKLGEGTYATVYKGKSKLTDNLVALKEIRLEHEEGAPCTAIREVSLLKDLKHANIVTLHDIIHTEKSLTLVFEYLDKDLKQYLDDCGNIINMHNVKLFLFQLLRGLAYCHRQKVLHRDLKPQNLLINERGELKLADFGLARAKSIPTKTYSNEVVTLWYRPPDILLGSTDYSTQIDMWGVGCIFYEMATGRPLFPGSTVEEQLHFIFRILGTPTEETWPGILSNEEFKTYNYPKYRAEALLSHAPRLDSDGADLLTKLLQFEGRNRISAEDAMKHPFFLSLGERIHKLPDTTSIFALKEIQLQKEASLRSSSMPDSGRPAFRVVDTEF
Test [6] deals with MST4 (Homo sapiens, UniProt Q9P289). The settings on record: MST4, 1 μM; read-out: % control. The essentials:
as §1

Test [7] concerns the target PAK6 (Homo sapiens, UniProt Q9NQU5). The settings on record: PAK6, 1 μM; read-out: % control. The gist of the method:
as §1

Test [8] addresses CAMK2D (Homo sapiens, UniProt Q13557). Particulars: read-out: % control. The essentials: as §1
Test [9] addresses T2, MEK3 (Homo sapiens, UniProt P46734).
T2 sequence (P46734 1-347): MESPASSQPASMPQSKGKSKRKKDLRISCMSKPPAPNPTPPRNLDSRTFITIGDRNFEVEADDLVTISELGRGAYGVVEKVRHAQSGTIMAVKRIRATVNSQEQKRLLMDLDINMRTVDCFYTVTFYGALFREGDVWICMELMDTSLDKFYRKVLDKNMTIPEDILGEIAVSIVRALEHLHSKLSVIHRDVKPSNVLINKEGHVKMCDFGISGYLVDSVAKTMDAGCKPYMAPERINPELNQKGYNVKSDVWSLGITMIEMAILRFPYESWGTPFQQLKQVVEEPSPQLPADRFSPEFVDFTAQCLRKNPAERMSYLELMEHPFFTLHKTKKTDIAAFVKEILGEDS
Particulars: MEK3, 1 μM; read-out: % control. The essentials: as §1

Test [10] deals with MELK (Homo sapiens, UniProt Q14680). The settings on record: read-out: % control. The gist of the method: as §1
Sequence of MELK (Q14680 whole entry): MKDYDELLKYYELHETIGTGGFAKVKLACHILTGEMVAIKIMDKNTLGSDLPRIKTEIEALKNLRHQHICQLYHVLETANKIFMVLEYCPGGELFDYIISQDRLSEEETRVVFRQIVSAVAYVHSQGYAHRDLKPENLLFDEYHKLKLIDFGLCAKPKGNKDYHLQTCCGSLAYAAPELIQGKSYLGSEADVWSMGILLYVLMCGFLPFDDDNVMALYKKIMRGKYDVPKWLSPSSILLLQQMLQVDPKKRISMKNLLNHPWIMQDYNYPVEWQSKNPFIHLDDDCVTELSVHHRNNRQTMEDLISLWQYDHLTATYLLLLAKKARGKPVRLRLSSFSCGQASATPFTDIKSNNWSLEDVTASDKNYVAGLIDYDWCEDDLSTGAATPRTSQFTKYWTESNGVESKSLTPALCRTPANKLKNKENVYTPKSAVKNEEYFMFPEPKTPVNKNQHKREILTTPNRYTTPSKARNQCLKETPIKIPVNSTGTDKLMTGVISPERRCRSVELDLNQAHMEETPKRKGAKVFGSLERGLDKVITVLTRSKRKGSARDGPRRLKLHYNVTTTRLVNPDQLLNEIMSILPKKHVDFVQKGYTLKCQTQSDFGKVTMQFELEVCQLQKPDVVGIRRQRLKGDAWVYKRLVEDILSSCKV
For test [11], the target named is GSK3A (Homo sapiens, UniProt P49840). The settings on record: read-out: % control. The essentials:
as §1

Test [12] has as its target T3, CSF1R-autoinhibited (Homo sapiens, UniProt P07333).
T3 sequence (P07333 539-972 limits assumed): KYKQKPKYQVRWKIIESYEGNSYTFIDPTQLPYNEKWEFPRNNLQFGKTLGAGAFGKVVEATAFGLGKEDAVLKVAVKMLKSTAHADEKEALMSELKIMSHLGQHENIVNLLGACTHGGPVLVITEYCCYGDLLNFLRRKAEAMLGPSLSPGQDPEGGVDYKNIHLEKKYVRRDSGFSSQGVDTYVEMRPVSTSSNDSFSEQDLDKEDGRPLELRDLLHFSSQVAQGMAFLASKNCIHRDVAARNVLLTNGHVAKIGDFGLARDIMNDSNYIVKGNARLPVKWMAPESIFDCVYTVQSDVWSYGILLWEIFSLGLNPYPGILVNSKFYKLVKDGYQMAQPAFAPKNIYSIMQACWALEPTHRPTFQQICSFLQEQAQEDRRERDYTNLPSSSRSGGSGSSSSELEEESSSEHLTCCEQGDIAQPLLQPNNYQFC
The settings on record: read-out: % control. The gist of the method:
as §1

Sequence of CAMKK1 (Q8N5S9 whole entry): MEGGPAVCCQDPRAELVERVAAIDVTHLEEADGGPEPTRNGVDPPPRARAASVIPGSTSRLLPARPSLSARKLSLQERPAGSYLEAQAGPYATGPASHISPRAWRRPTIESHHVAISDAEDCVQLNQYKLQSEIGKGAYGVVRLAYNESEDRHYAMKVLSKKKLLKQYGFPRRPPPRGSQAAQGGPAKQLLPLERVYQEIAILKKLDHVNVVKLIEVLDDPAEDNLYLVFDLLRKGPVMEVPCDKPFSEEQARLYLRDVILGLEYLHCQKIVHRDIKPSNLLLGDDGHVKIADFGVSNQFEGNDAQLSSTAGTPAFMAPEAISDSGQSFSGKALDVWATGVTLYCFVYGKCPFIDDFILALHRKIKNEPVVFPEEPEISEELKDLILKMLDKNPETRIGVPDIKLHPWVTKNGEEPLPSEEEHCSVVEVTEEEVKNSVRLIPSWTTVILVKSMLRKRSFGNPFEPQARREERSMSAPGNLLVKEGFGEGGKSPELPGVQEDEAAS
Sequence of GSK3A (P49840 whole entry): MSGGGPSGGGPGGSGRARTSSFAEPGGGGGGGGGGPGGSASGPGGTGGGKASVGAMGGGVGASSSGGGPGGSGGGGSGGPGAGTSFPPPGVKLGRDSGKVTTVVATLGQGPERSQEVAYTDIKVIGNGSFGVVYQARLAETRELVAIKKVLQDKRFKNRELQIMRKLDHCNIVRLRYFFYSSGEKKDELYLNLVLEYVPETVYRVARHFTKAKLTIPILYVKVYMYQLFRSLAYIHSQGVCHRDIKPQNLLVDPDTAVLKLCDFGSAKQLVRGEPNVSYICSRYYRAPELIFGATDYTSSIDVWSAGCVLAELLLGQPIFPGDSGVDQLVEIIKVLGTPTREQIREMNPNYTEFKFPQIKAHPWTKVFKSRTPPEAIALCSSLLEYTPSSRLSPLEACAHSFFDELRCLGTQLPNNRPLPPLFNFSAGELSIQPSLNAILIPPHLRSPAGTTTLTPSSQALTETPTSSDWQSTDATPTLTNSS
Sequence of TRPM6 (Q9BX84 whole entry): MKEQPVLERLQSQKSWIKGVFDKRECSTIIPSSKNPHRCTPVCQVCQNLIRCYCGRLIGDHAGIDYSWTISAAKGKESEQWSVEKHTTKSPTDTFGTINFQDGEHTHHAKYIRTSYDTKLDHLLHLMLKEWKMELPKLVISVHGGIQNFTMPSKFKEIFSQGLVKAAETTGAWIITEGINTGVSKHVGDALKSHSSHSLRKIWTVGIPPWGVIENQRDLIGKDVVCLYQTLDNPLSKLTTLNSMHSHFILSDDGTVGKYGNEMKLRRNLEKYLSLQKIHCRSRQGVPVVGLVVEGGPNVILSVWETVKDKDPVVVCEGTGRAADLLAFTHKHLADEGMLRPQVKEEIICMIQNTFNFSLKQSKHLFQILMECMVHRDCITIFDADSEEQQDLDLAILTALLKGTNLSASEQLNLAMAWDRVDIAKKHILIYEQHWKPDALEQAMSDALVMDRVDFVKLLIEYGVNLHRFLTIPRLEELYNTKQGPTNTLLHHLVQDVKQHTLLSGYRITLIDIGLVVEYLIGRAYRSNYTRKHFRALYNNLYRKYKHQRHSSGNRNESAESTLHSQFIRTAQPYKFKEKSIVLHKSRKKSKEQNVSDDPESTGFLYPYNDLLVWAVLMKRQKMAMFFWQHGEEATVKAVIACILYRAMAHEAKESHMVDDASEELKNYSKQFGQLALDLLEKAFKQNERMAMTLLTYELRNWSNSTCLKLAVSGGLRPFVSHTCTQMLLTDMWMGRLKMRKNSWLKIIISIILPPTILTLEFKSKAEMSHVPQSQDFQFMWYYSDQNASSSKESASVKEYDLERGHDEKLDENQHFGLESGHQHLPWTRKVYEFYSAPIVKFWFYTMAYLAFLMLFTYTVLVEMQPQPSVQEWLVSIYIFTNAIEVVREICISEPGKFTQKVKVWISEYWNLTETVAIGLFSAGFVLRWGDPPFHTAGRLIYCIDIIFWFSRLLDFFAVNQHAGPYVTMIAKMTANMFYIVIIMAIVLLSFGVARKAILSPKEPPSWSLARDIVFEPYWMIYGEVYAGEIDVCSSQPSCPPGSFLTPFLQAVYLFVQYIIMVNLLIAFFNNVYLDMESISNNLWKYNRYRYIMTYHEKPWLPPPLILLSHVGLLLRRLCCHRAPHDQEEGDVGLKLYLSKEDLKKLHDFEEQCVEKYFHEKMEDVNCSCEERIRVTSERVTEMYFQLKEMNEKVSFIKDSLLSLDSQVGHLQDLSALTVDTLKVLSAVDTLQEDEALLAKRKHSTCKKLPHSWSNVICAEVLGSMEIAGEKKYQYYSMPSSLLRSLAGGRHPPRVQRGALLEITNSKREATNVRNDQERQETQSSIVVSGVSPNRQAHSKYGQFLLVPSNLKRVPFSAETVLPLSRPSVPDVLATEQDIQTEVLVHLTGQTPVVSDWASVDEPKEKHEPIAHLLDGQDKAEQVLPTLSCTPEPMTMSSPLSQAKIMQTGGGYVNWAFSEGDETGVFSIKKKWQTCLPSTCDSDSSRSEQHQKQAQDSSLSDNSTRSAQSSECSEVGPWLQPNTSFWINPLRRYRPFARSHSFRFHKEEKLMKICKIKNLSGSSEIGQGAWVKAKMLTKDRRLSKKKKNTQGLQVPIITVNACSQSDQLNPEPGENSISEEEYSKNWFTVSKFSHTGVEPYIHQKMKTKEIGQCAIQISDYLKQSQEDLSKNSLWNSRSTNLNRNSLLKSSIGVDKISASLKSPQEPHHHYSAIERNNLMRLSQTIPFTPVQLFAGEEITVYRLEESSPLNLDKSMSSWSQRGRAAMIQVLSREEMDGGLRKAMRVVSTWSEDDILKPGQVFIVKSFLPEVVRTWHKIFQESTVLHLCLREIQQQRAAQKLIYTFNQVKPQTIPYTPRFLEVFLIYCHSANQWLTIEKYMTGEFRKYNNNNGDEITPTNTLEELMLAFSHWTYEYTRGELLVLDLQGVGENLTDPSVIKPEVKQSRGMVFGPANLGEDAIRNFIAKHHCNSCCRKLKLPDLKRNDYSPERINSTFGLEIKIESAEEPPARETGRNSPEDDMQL
Sequence of MST4 (Q9P289 whole entry): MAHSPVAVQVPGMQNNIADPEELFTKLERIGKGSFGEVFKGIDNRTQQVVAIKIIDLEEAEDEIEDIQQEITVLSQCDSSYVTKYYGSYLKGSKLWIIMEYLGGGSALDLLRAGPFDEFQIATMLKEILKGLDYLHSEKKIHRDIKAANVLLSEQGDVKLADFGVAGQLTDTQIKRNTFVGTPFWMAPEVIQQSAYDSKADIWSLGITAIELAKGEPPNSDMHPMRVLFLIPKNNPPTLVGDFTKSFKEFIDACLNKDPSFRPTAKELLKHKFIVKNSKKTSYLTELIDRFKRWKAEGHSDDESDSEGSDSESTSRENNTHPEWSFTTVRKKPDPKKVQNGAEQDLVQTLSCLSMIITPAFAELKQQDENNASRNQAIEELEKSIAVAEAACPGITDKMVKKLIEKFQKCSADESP
Sequence of CAMK2D (Q13557 whole entry): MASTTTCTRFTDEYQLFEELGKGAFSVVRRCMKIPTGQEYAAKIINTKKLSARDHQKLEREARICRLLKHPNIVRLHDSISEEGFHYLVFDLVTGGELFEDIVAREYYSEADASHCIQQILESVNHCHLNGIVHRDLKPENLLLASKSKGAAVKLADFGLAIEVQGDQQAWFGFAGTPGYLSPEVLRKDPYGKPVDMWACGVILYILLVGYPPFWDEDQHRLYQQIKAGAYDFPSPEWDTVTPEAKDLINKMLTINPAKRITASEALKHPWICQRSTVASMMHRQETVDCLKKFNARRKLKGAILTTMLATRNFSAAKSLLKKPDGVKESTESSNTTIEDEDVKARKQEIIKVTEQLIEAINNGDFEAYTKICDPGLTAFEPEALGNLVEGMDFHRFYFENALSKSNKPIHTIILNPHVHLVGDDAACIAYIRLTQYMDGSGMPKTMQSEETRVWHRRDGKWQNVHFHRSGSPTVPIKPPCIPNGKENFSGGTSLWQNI

On to `CNc1c(-c2cnn([C@H]3CCN(C(C)=O)C[C@@H]3F)c2)cnc2[nH]cc(Cl)c12` [Compound 77, 1-((3S,4S)-4-(4-(3-chloro-4-(methylamino)-1H-pyrrolo[2,3-b]pyridin-5-yl)-1H-pyrazol-1-yl)-3-fluoropiperidin-1-yl)ethan-1-one], for which the remaining binding at 1 µM in [1] turned out to be 74%; in [2] it was 100%; in test [3], 89%; in test [4], 79%; in test [5], 85%; in test [6], 67%. The remaining binding at 1 µM was found to be 99% in [7]; 100% in [8]; 36% in test [9]; 20% in test [10]; 98% in [11]; 30% in [12].
With `CNc1c(-c2ccc(C(=O)N3CCC(N4CCOCC4)CC3)cc2)cnc2[nH]cc(Cl)c12` [Compound 96, (4-(3-chloro-4-(methylamino)-1H-pyrrolo[2,3-b]pyridin-5-yl)phenyl)(4-morpholinopiperidin-1-yl)methanone], the remaining binding at 1 µM in test [1] is 78%; in [2], 100%; in test [3], 82%; in test [4], 82%; in test [5] it was 86%; in [6], 99%. In addition, the remaining binding at 1 µM turned out to be 100% in [7]; 100% in test [8]; 4.2% in [9]; 16% in test [10]; 65% in test [11]; 49% in test [12].
`O=C(c1ccc(-c2cnc3[nH]cc(Cl)c3c2NC2CCCC2)cc1)N1CCC(N2CCOCC2)CC1` [Compound 101, (4-(3-chloro-4-(cyclopentylamino)-1H-pyrrolo[2,3-b]pyridin-5-yl)phenyl)(4-morpholinopiperidin-1-yl)methanone]: the remaining binding at 1 µM in test [1] was 87%; in [2], 100%; in test [3], 100%; in test [4], 88%; in test [5], 100%; in test [6], 100%. The remaining binding at 1 µM in [7] stood at 99%; in [8] it was 93%; in test [9] it was 33%; in test [10], 30%; in test [11], 42%; in test [12], 3.2%.
